Assay results as given in patent publication US12084472B2 (Ardelyx, Inc., priority 2015, dated 2024).

Biological target: T1, human TGR5 (Homo sapiens, UniProt Q8TDU6)
T1 construct: expressed in transfected cells; host or cells: HEK293
T1 sequence (Q8TDU6 1-330): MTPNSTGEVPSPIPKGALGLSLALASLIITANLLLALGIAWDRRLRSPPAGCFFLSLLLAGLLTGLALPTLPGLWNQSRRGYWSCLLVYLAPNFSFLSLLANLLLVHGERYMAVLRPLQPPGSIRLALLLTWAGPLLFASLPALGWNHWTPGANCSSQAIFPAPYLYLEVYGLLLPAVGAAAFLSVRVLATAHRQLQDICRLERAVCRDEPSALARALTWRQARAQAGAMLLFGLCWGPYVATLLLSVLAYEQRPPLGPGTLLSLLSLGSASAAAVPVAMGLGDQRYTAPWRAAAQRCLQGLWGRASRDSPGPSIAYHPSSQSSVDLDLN
Assay: Cell-based TGR5 assay (cAMP generation, HTRF)
Conditions: HEK293 cells stably transfected with human TGR5; cAMP by HTRF; 30 minutes at 37° C.; read-out: pEC50 Human TGR5 (converted)
Summary of the method: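 First, compounds in 3-fold serial dilution were placed in HBSS with 10 mM HEPES pH 7.4 and 0.5 mM IBMX. Next, human TGR5-expressing HEK293 cells were added and incubated 30 min at 37° C. Finally, cAMP was detected by HTRF and pEC50 derived by logistic fitting.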

Structure (SMILES)	EC50 [µM]
COCCN(C[C@H](O)[C@@H](O)[C@H](O)[C@H](O)CO)C(=O)CCCCc1cc(Cl)c(COC2(c3cnccc3-c3ccccc3OC3CC3)CC2)cc1Cl [Compound I-127, 5-[2,5-dichloro-4-({1-[4-(2-cyclopropoxyphenyl)pyridin-3-yl]cyclopropoxy}methyl)phenyl]-N-(2-methoxyethyl)-N-[(2S,3R,4R,5R)-2,3,4,5,6-pentahydroxyhexyl]pentanamide]	< 0.1
CC(C)N(C[C@H](O)[C@@H](O)[C@H](O)[C@H](O)CO)C(=O)CCCCc1cc(Cl)c(COC2(c3cnccc3-c3ccccc3OC3CC3)CC2)cc1Cl [Compound I-128, 5-[2,5-dichloro-4-({1-[4-(2-cyclopropoxyphenyl)pyridin-3-yl]cyclopropoxy}methyl)phenyl]-N-[(2S,3R,4R,5R)-2,3,4,5,6-pentahydroxyhexyl]-N-(propan-2-yl)pentanamide]	< 0.1
CN(CCCCCSc1ccc(Cl)c(CNC2(c3cnccc3-c3ccccc3OC3CC3)CC2)c1)C(=O)[C@@H](O)[C@@H](O)[C@H](O)[C@@H](O)CO [Compound I-507, (2S,3S,4R,5S)-N-[5-({4-chloro-3-[({11-[4-(2-cyclopropoxyphenyl)pyridin-3-yl]cyclopropyl}amino)methyl]phenyl}sulfanyl)pentyl]-2,3,4,5,6-pentahydroxy-N-methylhexanamide]	< 0.1
CN(CCCSc1ccc(Cl)c(COC2(c3cnccc3-c3ccccc3OC3CC3)CC2)c1)C(=O)[C@@H](O)[C@@H](O)[C@H](O)[C@@H](O)CO [Compound I-508, (2S,3S,4R,5S)-N-(3-{[4-chloro-3-({1-[4-(2-cyclopropoxyphenyl)pyridin-3-yl]cyclopropoxy}methyl)phenyl]sulfanyl}propyl)-2,3,4,5,6-pentahydroxy-N-methylhexanamide]	< 0.1
C[C@H](CCCC(=O)N(C)C[C@H](O)[C@@H](O)[C@H](O)[C@H](O)CO)c1ccc(Cl)c(CNC2(c3cnccc3-c3ccccc3OC3CC3)CC2)c1 (single isomer, unassigned) [Compound I-326]	< 0.1
CSc1ccc(Cl)c(COC2(c3cnccc3-c3ccccc3OC3CC3)CC2)c1 [Compound I-617, 3-(1-{[2-chloro-5-(methylsulfanyl)phenyl]methoxy}cyclopropyl)-4-(2-cyclopropoxyphenyl) pyridine]	< 0.1
Clc1ccc(C2CC2)cc1COC1(c2cnccc2-c2ccccc2OC2CC2)CC1 [Compound I-53, 3-{1-[(2-chloro-5-cyclopropylphenyl)methoxy]cyclopropyl}-4-(2-cyclopropoxyphenyl)pyridine]	< 0.1
O=C1CCO[C@H]([C@@H](O)[C@H](O)[C@H](O)CO)CN1CCCCc1cc(Cl)c(COC2(c3cnccc3-c3ccccc3OC3CC3)CC2)cc1Cl [Compound I-78, (S)-4-(4-(2,5-dichloro-4-((1-(4-(2-cyclopropoxyphenyl)pyridin-3-yl)cyclopropoxy)methyl)phenyl)butyl)-2-((1S,2R,3R)-1,2,3,4-tetrahydroxybutyl)-1,4-oxazepan-5-one]	< 0.1
O=C(CCCSc1ccc(Cl)c(CNC2(c3cnccc3-c3ccccc3OC3CC3)CC2)c1)NC[C@H](O)[C@@H](O)[C@H](O)[C@H](O)CO [Compound I-649, 4-({4-chloro-3-[({1-[4-(2-cyclopropoxyphenyl)pyridin-3-yl]cyclopropyl}amino)methyl]phenyl}sulfanyl)-N-[(2S,3R,4R,5R)-2,3,4,5,6-pentahydroxyhexyl]butanamide]	< 0.1
O=C(CCCSc1ccc(Cl)c(COC2(c3cnccc3-c3ccccc3OC3CC3)CC2)c1)N(CCS(=O)(=O)N1CCOCC1)C[C@H](O)[C@@H](O)[C@H](O)[C@H](O)CO [Compound I-686, 4-{[4-chloro-3-({1-[4-(2-cyclopropoxyphenyl)pyridin-3-yl]cyclopropoxy}methyl)phenyl]sulfanyl}-N-[2-(morpholine-4-sulfonyl)ethyl]-N-[(2S,3R,4R,5R)-2,3,4,5,6-pentahydroxyhexyl]butanamide]	0.126 to 1
O=C(NCCOCCS(=O)(=O)c1ccc(Cl)c(COC2(c3cnccc3-c3ccccc3OC3CC3)CC2)c1)N[C@@H](CO)[C@@H](O)[C@H](O)[C@H](O)CO [Compound I-641, 1-(2-{2-[4-chloro-3-({1-[4-(2-cyclopropoxyphenyl)pyridin-3-yl]cyclopropoxy}methyl)benzenesulfonyl]ethoxy}ethyl)-3-[(2S,3R,4S,5R)-1,3,4,5,6-pentahydroxyhexan-2-yl]urea]	< 0.1
O=C(NCCCCCSc1ccc(Cl)c(COC2(c3cnccc3-c3ccccc3OC3CC3)CC2)c1)NCCCCNC(=O)NC[C@H](O)[C@@H](O)[C@H](O)[C@H](O)CO [Compound I-627]	< 0.1
O=C(NCCC1CCN(S(=O)(=O)c2ccc(Cl)c(COC3(c4cnccc4-c4ccccc4OC4CC4)CC3)c2)CC1)NC[C@H](O)[C@@H](O)[C@H](O)[C@H](O)CO [Compound I-417, 1-(2-{1-[4-chloro-3-({1-[4-(2-cyclopropoxyphenyl)pyridin-3-yl]cyclopropoxy}methyl)benzenesulfonyl]piperidin-4-yl}ethyl)-3-[(2S,3R,4R,5R)-2,3,4,5,6-pentahydroxyhexyl]urea]	< 0.1
CC(C)(NCc1cc(Cl)ccc1Cl)c1cnccc1-c1ccccc1OC1CC1 [Compound I-723, 2-(4-(2-Cyclopropoxyphenyl)pyridin-3-yl)-N-(2,5-dichlorobenzyl)propan-2-amine]	< 0.1
O=C(CCN1CCN(S(=O)(=O)c2ccc(Cl)c(COC3(c4cnccc4-c4ccccc4OC4CC4)CC3)c2)CC1)NC[C@H](O)[C@@H](O)[C@H](O)[C@H](O)CO [Compound I-443, 3-{4-[4-chloro-3-({1-[4-(2-cyclopropoxyphenyl)pyridin-3-yl]cyclopropoxy}methyl)benzenesulfonyl]piperazin-1-yl}-N-[(2S,3R,4R,5R)-2,3,4,5,6-pentahydroxyhexyl]propanamide]	0.126 to 1
CS(=O)(=O)NCCCN(CCCSc1ccc(Cl)c(CNC2(c3cnccc3-c3ccccc3OC3CC3)CC2)c1)C(=O)[C@@H](O)[C@@H](O)[C@H](O)[C@@H](O)CO [Compound I-588, (2S,3S,4R,5S)-N-[3-({4-chloro-3-[({1-[4-(2-cyclopropoxyphenyl)pyridin-3-yl]cyclopropyl}amino)methyl]phenyl}sulfanyl)propyl]-2,3,4,5,6-pentahydroxy-N-(3-methanesulfonamidopropyl) hexanamide]	< 0.1
C=C(CCCNC(=O)[C@@H](O)[C@@H](O)[C@H](O)[C@@H](O)CO)c1ccc(Cl)c(CNC2(c3cnccc3-c3ccccc3OC3CC3)CC2)c1 [Compound I-381, (2S,3S,4R,5S)-N-(4-[4-chloro-3-[([1-[4-(2-cyclopropoxyphenyl)pyridin-3-yl]cyclopropyl]amino)methyl]phenyl]pent-4-en-1-yl)-2,3,4,5,6-pentahydroxyhexanamide]	< 0.1
CCc1ccc(C(C)CCCC(=O)NC[C@H](O)[C@@H](O)[C@H](O)[C@H](O)CO)cc1CNC1(c2cnccc2-c2ccccc2OC2CC2)CC1 (stereo partly drawn) [Compound I-349, 5-{3-[({1-[4-(2-cyclopropoxyphenyl)pyridin-3-yl]cyclopropyl}amino)methyl]-4-ethylphenyl}-N-[(2S,3R,4R,5R)-2,3,4,5,6-pentahydroxyhexyl]hexanamide]	< 0.1
CN(C)CC(=O)N(CCCCc1cc(Cl)c(COC2(c3cnccc3-c3ccccc3OC3CC3)CC2)cc1Cl)C[C@H](O)[C@@H](O)[C@H](O)[C@H](O)CO [Compound I-203, N-{4-[2,5-dichloro-4-({1-[4-(2-cyclopropoxyphenyl)pyridin-3-yl]cyclopropoxy}methyl)phenyl]butyl}-2-(dimethylamino)-N-[(2S,3R,4R,5R)-2,3,4,5,6-pentahydroxyhexyl]acetamide]	< 0.1
CC(CCCC(=O)N(CCS(=O)(=O)N(C)C)C[C@H](O)[C@@H](O)[C@H](O)[C@H](O)CO)c1ccc(Cl)c(CNC2(c3cnccc3-c3ccccc3OC3CC3)CC2)c1 (stereo partly drawn) [Compound I-348, 5-{4-chloro-3-[({1-[4-(2-cyclopropoxyphenyl)pyridin-3-yl]cyclopropyl}amino)methyl]phenyl}-N-[2-(dimethylsulfamoyl)ethyl]-N-[(2S,3R,4R,5R)-2,3,4,5,6-pentahydroxyhexyl]hexanamide]	< 0.1
Clc1ccc(CNC2(c3cnccc3-c3ccccc3OC3CC3)CC2)c(Cl)c1 [Compound I-28, 1-[4-(2-cyclopropoxyphenyl)pyridin-3-yl]-N-[(2,4-dichlorophenyl)methyl]cyclopropan-1-amine]	0.126 to 1
CC(=O)NCCN(CCCCSc1ccc(Cl)c(COC2(c3cnccc3-c3ccccc3OC3CC3)CC2)c1)C(=O)[C@@H](O)[C@@H](O)[C@H](O)[C@@H](O)CO [Compound I-564, (2S,3S,4R,5S)-N-(4-{[4-chloro-3-({1-[4-(2-cyclopropoxyphenyl)pyridin-3-yl]cyclopropoxy}methyl)phenyl]sulfanyl}butyl)-N-(2-acetamidoethyl)-2,3,4,5,6-pentahydroxyhexanamide]	< 0.1
Cc1ccc(C(C)CCCC(=O)N(C[C@H](O)[C@@H](O)[C@H](O)[C@H](O)CO)C2CCOCC2)cc1CNC1(c2cnccc2-c2ccccc2OC2CC2)CC1 (stereo partly drawn) [Compound I-363, 5-{3-[({1-[4-(2-cyclopropoxyphenyl)pyridin-3-yl]cyclopropyl}amino)methyl]-4-methylphenyl}-N-(oxan-4-yl)-N-[(2S,3R,4R,5R)-2,3,4,5,6-pentahydroxyhexyl]hexanamide]	< 0.1
